Assay results reported in US20260262643A1, “HERBICIDAL BENZOXAZINES” (FMC CORPORATION, priority 2022, published 2026).

Legend:
blackgrass [1] = test: Test C preemergence; format: in vivo, Alopecurus myosuroides; conditions: 0 to 100 scale (0 no effect, 100 complete control)
Method in brief: (§1)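 Seeds in loam–sand blend received preemergence directed soil spray of test chemicals in non-phytotoxic solvent with surfactant; postemergence treatment was applied at one- to two-leaf stage (2–10 cm). After 10 days in greenhouse, injury rated visually versus untreated controls, 0 (no effect) to 100 (complete control).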

pigweed, palmer [2] = test: Test C preemergence; format: in vivo, Amaranthus palmeri; conditions: 0 to 100 scale (0 no effect, 100 complete control)
Method in brief: as §1

barnyardgrass [3] = test: Test C postemergence; format: in vivo, Echinochloa crusgalli; conditions: 10 days
Method in brief: as §1

corn [4] = test: Test C postemergence; format: in vivo, Zea mays; conditions: 10 days
Method in brief: as §1

oat, wild [5] = test: Test C postemergence; format: in vivo, Avena fatua; conditions: 10 days
Method in brief: as §1

soybean [6] = test: Test C postemergence; format: in vivo, Glycine max; conditions: 10 days
Method in brief: as §1

pigweed, palmer [7] = test: Test C postemergence; format: in vivo, Amaranthus palmeri; conditions: 10 days
Method in brief: as §1

corn [8] = test: Test C preemergence; format: in vivo, Zea mays; conditions: 0 to 100 scale (0 no effect, 100 complete control)
Method in brief: as §1

galium = test: Test C postemergence; format: in vivo, Galium aparine; conditions: 10 days
Method in brief: as §1

ragweed [9] = test: Test C postemergence; format: in vivo, Ambrosia artemisiifolia; conditions: 10 days
Method in brief: as §1

rice = test: Test D flooded paddy test; format: in vivo, Oryza sativa; conditions: 250 g ai/ha, applied to paddy water, visual rating after 13 to 14 days, scale 0 to 100 (0 no effect, 100 complete control)
Method in brief: (§2)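 Plants grown to the 2-leaf stage; pots flooded to 3 cm above soil at treatment and held at that depth throughout. Test compounds applied directly to the paddy water. After 13 to 14 days in a greenhouse, response was rated visually versus controls on a 0 (no effect) to 100 (complete control) scale.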

green foxtail = test: Test C preemergence; format: in vivo, Setaria viridis; conditions: 0 to 100 scale (0 no effect, 100 complete control)
Method in brief: as §1

ragweed [10] = test: Test C preemergence; format: in vivo, Ambrosia artemisiifolia; conditions: 0 to 100 scale (0 no effect, 100 complete control)
Method in brief: as §1

ryegrass, Italian [11] = test: Test C preemergence; format: in vivo, Lolium multiflorum; conditions: 0 to 100 scale (0 no effect, 100 complete control)
Method in brief: as §1

barnyardgrass [12] = test: Test C preemergence; format: in vivo, Echinochloa crusgalli; conditions: 0 to 100 scale (0 no effect, 100 complete control)
Method in brief: as §1

kochia [13] = test: Test C postemergence; format: in vivo, Bassia scoparia; conditions: 10 days
Method in brief: as §1

soybean [14] = test: Test C preemergence; format: in vivo, Glycine max; conditions: 0 to 100 scale (0 no effect, 100 complete control)
Method in brief: as §1

wheat [15] = test: Test C preemergence; format: in vivo, Triticum aestivum; conditions: 0 to 100 scale (0 no effect, 100 complete control)
Method in brief: as §1

ducksalad = test: Test D flooded paddy test; format: in vivo, Heteranthera limosa; conditions: 250 g ai/ha, applied to paddy water, visual rating after 13 to 14 days, scale 0 to 100 (0 no effect, 100 complete control)
Method in brief: as §2

horseweed = test: Test C postemergence; format: in vivo, Erigeron canadensis; conditions: 10 days
Method in brief: as §1

barnyardgrass [16] = test: Test D flooded paddy test; format: in vivo, Echinochloa crus-galli; conditions: 250 g ai/ha, applied to paddy water, visual rating after 13 to 14 days, scale 0 to 100 (0 no effect, 100 complete control)
Method in brief: as §2

blackgrass [17] = test: Test C postemergence; format: in vivo, Alopecurus myosuroides; conditions: 10 days
Method in brief: as §1

wheat [18] = test: Test C postemergence; format: in vivo, Triticum aestivum; conditions: 10 days
Method in brief: as §1

sedge, umbrella = test: Test D flooded paddy test; format: in vivo, Cyperus difformis; conditions: 250 g ai/ha, applied to paddy water, visual rating after 13 to 14 days, scale 0 to 100 (0 no effect, 100 complete control)
Method in brief: as §2

ryegrass, Italian [19] = test: Test C postemergence; format: in vivo, Lolium multiflorum; conditions: 10 days
Method in brief: as §1

oat, wild [20] = test: Test C preemergence; format: in vivo, Avena fatua; conditions: 0 to 100 scale (0 no effect, 100 complete control)
Method in brief: as §1

kochia [21] = test: Test C preemergence; format: in vivo, Bassia scoparia; conditions: 0 to 100 scale (0 no effect, 100 complete control)
Method in brief: as §1

[22] = Preemergence, 500 g ai/ha, visual rating after 10 days
[23] = Test C, preemergence, 125 g ai/ha
[24] = 125 g ai/ha, postemergence, 0 to 100 scale, 0 no effect, 100 complete control
[25] = Postemergence, 500 g ai/ha, visual 0 to 100 scale (0 no effect, 100 complete control)

Cc1ccc(-n2cnc(C(C)(C)O)n2)cc1C(=O)N1C[C@H](C)Oc2c(C)cccc21 [Compound 256]
Plant response rating, Blackgrass (blackgrass [1]; [22]): 90
Blackgrass plant response rating (blackgrass [1]; [23]): 70
Plant response rating, Pigweed, Palmer (pigweed, palmer [2]; [22]): 100
Pigweed, Palmer plant response rating (pigweed, palmer [2]; [23]): 100
Plant response rating, Barnyardgrass (barnyardgrass [3]; [24]): 60
Plant response rating, Barnyardgrass (barnyardgrass [3]; [25]): 90
Plant response rating, Corn (corn [4]; [24]): 90
Plant response rating, Corn (corn [4]; [25]): 90
Plant response rating, Oat, Wild (oat, wild [5]; [24]): 90
Plant response rating, Oat, Wild (oat, wild [5]; [25]): 90
Plant response rating, Soybean (soybean [6]; [24]): 100
Plant response rating, Soybean (soybean [6]; [25]): 100
Plant response rating, Pigweed, Palmer (pigweed, palmer [7]; [24]): 80
Plant response rating, Pigweed, Palmer (pigweed, palmer [7]; [25]): 100
Plant response rating, Corn (corn [8]; [22]): 90
Corn plant response rating (corn [8]; [23]): 50
Plant response rating, Galium (galium; [24]): 100
Plant response rating, Galium (galium; [25]): 100
Plant response rating, Ragweed (ragweed [9]; [24]): 70
Plant response rating, Ragweed (ragweed [9]; [25]): 80
Plant response rating, Rice (Flood) (rice): 35
Plant response rating, Foxtail, Green (green foxtail; [22]): 100
Foxtail, Green plant response rating (green foxtail; [23]): 100
Plant response rating, Ragweed (ragweed [10]; [22]): 90
Ragweed plant response rating (ragweed [10]; [23]): 70
Plant response rating, Ryegrass, Italian (ryegrass, Italian [11]; [22]): 100
Ryegrass, Italian plant response rating (ryegrass, Italian [11]; [23]): 90
Plant response rating, Barnyardgrass (barnyardgrass [12]; [22]): 100
Barnyardgrass plant response rating (barnyardgrass [12]; [23]): 100
Plant response rating, Kochia (kochia [13]; [24]): 60
Plant response rating, Kochia (kochia [13]; [25]): 80
Plant response rating, Soybean (soybean [14]; [22]): 90
Soybean plant response rating (soybean [14]; [23]): 100
Plant response rating, Wheat (wheat [15]; [22]): 90
Wheat plant response rating (wheat [15]; [23]): 80
Plant response rating, Ducksalad (Flood) (ducksalad): 98
Plant response rating, Horseweed (horseweed; [24]): 30
Plant response rating, Horseweed (horseweed; [25]): 40
Plant response rating, Barnyardgrass (Flood) (barnyardgrass [16]): 45
Plant response rating, Blackgrass (blackgrass [17]; [24]): 90
Plant response rating, Blackgrass (blackgrass [17]; [25]): 90
Plant response rating, Wheat (wheat [18]; [24]): 80
Plant response rating, Wheat (wheat [18]; [25]): 90
Plant response rating, Sedge, Umbrella (Flood) (sedge, umbrella): 98
Plant response rating, Ryegrass, Italian (ryegrass, Italian [19]; [24]): 90
Plant response rating, Ryegrass, Italian (ryegrass, Italian [19]; [25]): 100
Plant response rating, Oat, Wild (oat, wild [20]; [22]): 90
Oat, Wild plant response rating (oat, wild [20]; [23]): 90
Plant response rating, Kochia (kochia [21]; [22]): 90
Kochia plant response rating (kochia [21]; [23]): 80
